# Patent publication US20120141384A1, “ANTIBACTERIAL CONJUGATED BORONIC ACIDS AND PHARMACEUTICAL COMPOSITIONS THEREOF” (priority 2008, published 2012)
# How the values were obtained:
# [1] = system: Propionbacterium acnes ATCC 11827; experiment: Antimicrobial efficacy (challenge) test, plate count, anaerobic incubation; assay type: cell-based; details: for No. of Surviving Microorganisms CFU/g: 25° C. anaerobic, initial contamination 4.1 × 10^5 CFU/g; for antimicrobial effect in words: following one day of exposure
# Description: (§1) The purpose of this study was to assess the antimicrobial efficacy of 2-Formylphenyl boronic acid (FPB) aqueous solutions, in different concentrations of 10 mM, 20 mM and 40 mM. 2-FBP was obtained from Sigma Aldrich. Test Procedure: The test consisted of challenging the test solutions with specified microorganisms, storing the inoculated preparations at a prescribed temperature, removing the inoculated samples at specified intervals of time and counting the number of viable organisms in the withdrawn samples using a plate count procedure. The technical details were as follows: • The test was conducted in 20 g samples. • Each sample was separately inoculated by one of the test organisms. • The inoculated containers were incubated at 25° C. together with an uninoculated sample. • The inoculated container with P. acnes was incubated under anaerobic conditions at the same temperature. • The culture media for P. acnes was Brain Heart Infusion Agar instead of Tryptic Soy Agar. Formulations were challenged by introducing the following microorganisms: Propionbacterium acnes ATCC 11827 Counting of microorganisms in the inoculated samples was performed 1, 2 and 7 days following inoculation. The number of colony-forming units (cfu/g) determined at each incubation time point was compared to the number of cfu/g measured in non-inoculated control samples of FPB solutions. Antimicrobial effectiveness results, expressed as colony forming units of surviving microorganisms in the FPB solutions (cfu/g), are detailed in Tables 1-3.
# [2] = Solubility and compatibility of FPB in the carrier; assay type: physicochemical; details: for solubility in the carrier: 20 mM and 40 mM
# Source text: The active agent FPB is soluble in the carrier.
# [3] = system: Escherichia coli (ATCC No. 8739); experiment: Antimicrobial efficacy (challenge) test, plate count; assay type: cell-based; details: for No. of Surviving Microorganisms CFU/g: 25° C., initial contamination 2.8 × 10^5 CFU/g; for antimicrobial effect in words: following one day of exposure
# Description: as §1, with “2-FBP” for “The purpose of this study was to assess the antimicrobial efficacy of 2-Formylphenyl boronic acid (FPB) aqueous solutions, in different concentrations of 10 mM, 20 mM and 40 mM. 2-FBP”, “Escherichia coli (ATCC No. 8739)” for “Propionbacterium acnes ATCC 11827”
# [4] = Stability of 2-FBA under formulation conditions, amount by chromatography; assay type: physicochemical
# Description: 2-Formylphenyl Boronic Acid (2-FBA) was exposed to various formulation conditions, in order to assess its optimized formulation stability properties. The amount of 2-FBA was assessed prior to the experiment and following the exposure to the different conditions by chromatography. The conditions are detailed in the following Table.
# [5] = system: Propionbacterium acnes ATCC 11827; experiment: Antimicrobial efficacy (challenge) test, plate count, anaerobic incubation; assay type: cell-based; details: 30 mM FPB aqueous solution, 25° C. anaerobic, initial contamination 4.1 × 10^5 CFU/g
# [6] = system: Staphylococcus aureus (ATCC No. 6538); experiment: Antimicrobial efficacy (challenge) test, plate count; assay type: cell-based; details: for No. of Surviving Microorganisms CFU/g: 25° C., initial contamination 5.2 × 10^5 CFU/g; for antimicrobial effect in words: following one day of exposure
# Description: as §1, with “Staphylococcus aureus (ATCC No. 6538)” for “Propionbacterium acnes ATCC 11827”
# [7] = system: Staphylococcus aureus (ATCC No. 6538); experiment: as above; assay type: cell-based; details: 30 mM FPB aqueous solution, 25° C., initial contamination 5.2 × 10^5 CFU/g
# [8] = system: Pseudomonas aeruginosa (ATCC No. 9027); experiment: as above; assay type: cell-based; details: for No. of Surviving Microorganisms CFU/g: 25° C., initial contamination 4.3 × 10^6 CFU/g; for antimicrobial effect in words: following one day of exposure
# Description: as §1, with “2-FBP” for “The purpose of this study was to assess the antimicrobial efficacy of 2-Formylphenyl boronic acid (FPB) aqueous solutions, in different concentrations of 10 mM, 20 mM and 40 mM. 2-FBP”, “Pseudomonas aeruginosa (ATCC No. 9027)” for “Propionbacterium acnes ATCC 11827”
# [9] = 10 mM FPB aqueous solution, 1 week
# [10] = 10 mM FPB aqueous solution, 1 days
# [11] = 10 mM FPB aqueous solution, 2 days
# [12] = 20 mM FPB aqueous solution, 1 week
# [13] = 20 mM FPB aqueous solution, 1 days
# [14] = 20 mM FPB aqueous solution, 2 days
# [15] = solutions, concentrations of 10 mM, 20 mM and 40 mM
# [16] = Solution 1 (10 mM FPB), within two days of exposure
compound,measurement,setting,value
"O=Cc1ccccc1B(O)O [FPB, 2-Formylphenyl boronic acid]",No. of Surviving Microorganisms CFU/g,[1]; [9],<10 CFU/g
same,No. of Surviving Microorganisms CFU/g,[1]; [10],<10 CFU/g
same,No. of Surviving Microorganisms CFU/g,[1]; [11],<10 CFU/g
same,No. of Surviving Microorganisms CFU/g,[1]; [12],<10 CFU/g
same,No. of Surviving Microorganisms CFU/g,[1]; [13],<10 CFU/g
same,No. of Surviving Microorganisms CFU/g,[1]; [14],<10 CFU/g
same,antimicrobial effect in words,[1]; Solution 1 (10 mM FPB),completely destroyed
same,antimicrobial effect in words,[1]; Solution 2 (20 mM FBA),completely eradicated
same,antimicrobial effect in words,[1]; Solution 3 (40 mM FBA),completely eradicated
same,effectiveness (conclusion),[1]; [15],effective
same,interference with foam formation,[2]; emulsion carrier (Example 2),does not interfere
same,interference with the formation of an emulsion,[2]; emulsion carrier (Example 2),does not interfere
same,solubility in the carrier,[2]; emulsion carrier (Example 2),soluble
same,interference with foam formation,[2]; gel carrier (Example 3),does not interfere
same,solubility in the carrier,[2]; gel carrier (Example 3),soluble
same,No. of Surviving Microorganisms CFU/g,[3]; [9],<10 CFU/g
same,No. of Surviving Microorganisms CFU/g,[3]; [10],6.4 × 10^4 CFU/g
same,No. of Surviving Microorganisms CFU/g,[3]; [11],<10 CFU/g
same,No. of Surviving Microorganisms CFU/g,[3]; [12],<10 CFU/g
same,No. of Surviving Microorganisms CFU/g,[3]; [13],7.6 × 10^3 CFU/g
same,No. of Surviving Microorganisms CFU/g,[3]; [14],<10 CFU/g
same,No. of Surviving Microorganisms CFU/g,"[3]; 30 mM FPB aqueous solution, 1 week",<10 CFU/g
same,No. of Surviving Microorganisms CFU/g,"[3]; 30 mM FPB aqueous solution, 1 days",<10 CFU/g
same,No. of Surviving Microorganisms CFU/g,"[3]; 30 mM FPB aqueous solution, 2 days",<10 CFU/g
same,log reduction of the count from the initial load,[3]; [16],2.0 log
same,antimicrobial effect in words,[3]; Solution 2 (20 mM FBA),completely eradicated
same,antimicrobial effect in words,[3]; Solution 3 (40 mM FBA),completely eradicated
same,effectiveness (conclusion),[3]; [15],effective
same,stability in words,[4]; UV light,relatively stable
same,stability in words,[4]; heat,relatively stable
same,stability in words,[4]; in the presence of H2O2,underwent degradation
same,stability in words,[4]; in the presence of HCl (0.1 N),underwent degradation
same,stability in words,[4]; in the presence of NaOH (0.1 N),relatively stable
same,No. of Surviving Microorganisms CFU/g,[5]; 1 week,<10 CFU/g
same,No. of Surviving Microorganisms CFU/g,[5]; 1 days,<10 CFU/g
same,No. of Surviving Microorganisms CFU/g,[5]; 2 days,<10 CFU/g
same,No. of Surviving Microorganisms CFU/g,[6]; [9],<10 CFU/g
same,No. of Surviving Microorganisms CFU/g,[6]; [10],4.5 × 10^4 CFU/g
same,No. of Surviving Microorganisms CFU/g,[6]; [11],5.4 × 10^2 CFU/g
same,No. of Surviving Microorganisms CFU/g,[6]; [12],<10 CFU/g
same,No. of Surviving Microorganisms CFU/g,[6]; [13],<10 CFU/g
same,No. of Surviving Microorganisms CFU/g,[6]; [14],<10 CFU/g
same,log reduction of the count from the initial load,[6]; [16],2.0 log
same,antimicrobial effect in words,[6]; Solution 2 (20 mM FBA),completely eradicated
same,antimicrobial effect in words,[6]; Solution 3 (40 mM FBA),completely eradicated
same,effectiveness (conclusion),[6]; [15],effective
same,No. of Surviving Microorganisms CFU/g,[7]; 1 week,<10 CFU/g
same,No. of Surviving Microorganisms CFU/g,[7]; 1 days,<10 CFU/g
same,No. of Surviving Microorganisms CFU/g,[7]; 2 days,<10 CFU/g
same,No. of Surviving Microorganisms CFU/g,[8]; [9],<10 CFU/g
same,No. of Surviving Microorganisms CFU/g,[8]; [10],4.3 × 10^4 CFU/g
same,No. of Surviving Microorganisms CFU/g,[8]; [11],5.0 × 10^1 CFU/g
same,No. of Surviving Microorganisms CFU/g,[8]; [12],<10 CFU/g
same,No. of Surviving Microorganisms CFU/g,[8]; [13],<10 CFU/g
same,No. of Surviving Microorganisms CFU/g,[8]; [14],<10 CFU/g
same,log reduction of the count from the initial load,[8]; [16],2.0 log
same,antimicrobial effect in words,[8]; Solution 2 (20 mM FBA),completely eradicated
same,antimicrobial effect in words,[8]; Solution 3 (40 mM FBA),completely eradicated
same,effectiveness (conclusion),[8]; [15],effective
